Experimental data as given in patent publication US10351575B2, “Bicyclic urea, thiourea, guanidine and cyanoguanidine compounds useful for the treatment of pain” (Array BioPharma Inc., priority 2012, dated 2019).

Experiments:
Assay in all cases: KinaseProfiler off-target kinase profiling
Format in all cases: biochemical
Settings in all cases: 10 μM, ATP near Km
[1] = biological target: DAPK2 (Homo sapiens (Human), UniProt Q9UIK4)
Outline: (§1)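 ATP was held near each kinase's Km while compound was present at 10 μM. Runs were done twice, and values are the average percent of control.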

[2] = biological target: PKCgamma (Homo sapiens (Human), UniProt P05129)
Outline: as §1

[3] = biological target: CK2alpha2 (Homo sapiens (Human), UniProt P19784)
Outline: as §1

[4] = biological target: DAPK3 (Homo sapiens (Human), UniProt O43293)
DAPK3, sequence (O43293 whole entry): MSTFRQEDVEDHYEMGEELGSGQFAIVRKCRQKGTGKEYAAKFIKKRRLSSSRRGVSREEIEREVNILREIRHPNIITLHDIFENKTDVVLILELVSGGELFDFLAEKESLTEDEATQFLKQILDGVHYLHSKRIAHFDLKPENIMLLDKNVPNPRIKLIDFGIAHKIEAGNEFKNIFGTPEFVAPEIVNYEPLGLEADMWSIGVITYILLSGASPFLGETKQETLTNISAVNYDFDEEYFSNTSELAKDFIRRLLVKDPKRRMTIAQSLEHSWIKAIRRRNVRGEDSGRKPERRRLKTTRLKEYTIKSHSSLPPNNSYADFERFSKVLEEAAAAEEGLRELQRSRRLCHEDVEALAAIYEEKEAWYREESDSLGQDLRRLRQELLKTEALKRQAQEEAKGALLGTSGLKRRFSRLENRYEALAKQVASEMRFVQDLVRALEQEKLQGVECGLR
Outline: as §1

[5] = biological target: CK2 (Homo sapiens (Human), UniProt P68400)
Outline: as §1

[6] = biological target: MLK1 (Homo sapiens (Human), UniProt P80192)
Outline: as §1

[7] = biological target: SRPK1 (Homo sapiens (Human), UniProt Q96SB4)
Outline: as §1

[8] = biological target: ErbB4 (Homo sapiens (Human), UniProt Q15303)
ErbB4, sequence (Q15303 26-1308): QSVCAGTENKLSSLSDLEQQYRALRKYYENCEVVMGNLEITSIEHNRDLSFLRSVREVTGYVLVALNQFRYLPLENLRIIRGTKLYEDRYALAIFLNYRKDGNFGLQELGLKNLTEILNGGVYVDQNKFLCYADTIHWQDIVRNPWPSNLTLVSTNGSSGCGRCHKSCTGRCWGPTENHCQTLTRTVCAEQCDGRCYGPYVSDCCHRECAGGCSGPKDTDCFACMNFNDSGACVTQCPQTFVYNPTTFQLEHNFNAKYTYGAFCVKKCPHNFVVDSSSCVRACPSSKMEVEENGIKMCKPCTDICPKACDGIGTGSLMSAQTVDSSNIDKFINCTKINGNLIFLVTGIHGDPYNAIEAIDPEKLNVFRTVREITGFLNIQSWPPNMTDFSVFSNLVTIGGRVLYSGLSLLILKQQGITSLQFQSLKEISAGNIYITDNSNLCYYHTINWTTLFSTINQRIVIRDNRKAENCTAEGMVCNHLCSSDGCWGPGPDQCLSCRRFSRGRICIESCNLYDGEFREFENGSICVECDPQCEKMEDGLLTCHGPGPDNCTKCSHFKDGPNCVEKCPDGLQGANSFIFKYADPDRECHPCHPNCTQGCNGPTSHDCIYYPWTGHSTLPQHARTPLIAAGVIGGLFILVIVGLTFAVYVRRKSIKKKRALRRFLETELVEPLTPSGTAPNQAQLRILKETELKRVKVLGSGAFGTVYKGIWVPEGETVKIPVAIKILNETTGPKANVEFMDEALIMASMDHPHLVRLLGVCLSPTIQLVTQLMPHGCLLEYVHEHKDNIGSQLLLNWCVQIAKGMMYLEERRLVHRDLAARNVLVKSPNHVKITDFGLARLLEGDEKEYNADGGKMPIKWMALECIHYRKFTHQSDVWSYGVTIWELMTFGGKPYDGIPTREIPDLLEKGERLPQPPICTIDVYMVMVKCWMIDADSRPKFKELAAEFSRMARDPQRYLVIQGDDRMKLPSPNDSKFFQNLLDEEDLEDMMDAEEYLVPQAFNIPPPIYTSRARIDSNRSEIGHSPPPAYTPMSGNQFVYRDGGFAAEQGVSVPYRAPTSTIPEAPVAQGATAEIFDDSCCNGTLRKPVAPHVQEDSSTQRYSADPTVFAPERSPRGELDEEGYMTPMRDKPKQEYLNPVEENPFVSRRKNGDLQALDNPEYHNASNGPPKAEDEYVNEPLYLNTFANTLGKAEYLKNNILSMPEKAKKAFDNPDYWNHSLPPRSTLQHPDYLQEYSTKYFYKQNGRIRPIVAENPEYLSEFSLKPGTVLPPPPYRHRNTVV
Outline: as §1

[9] = biological target: Haspin (Homo sapiens (Human), UniProt Q8TF76)
Outline: as §1

[10] = biological target: MAPKAP-K5 (Homo sapiens (Human), UniProt Q8IW41)
Outline: as §1

[11] = biological target: Abl-P (Homo sapiens (Human), UniProt P00519)
Outline: as §1

[12] = biological target: PRK2 (Homo sapiens (Human), UniProt Q16513)
PRK2, sequence (Q16513 whole entry): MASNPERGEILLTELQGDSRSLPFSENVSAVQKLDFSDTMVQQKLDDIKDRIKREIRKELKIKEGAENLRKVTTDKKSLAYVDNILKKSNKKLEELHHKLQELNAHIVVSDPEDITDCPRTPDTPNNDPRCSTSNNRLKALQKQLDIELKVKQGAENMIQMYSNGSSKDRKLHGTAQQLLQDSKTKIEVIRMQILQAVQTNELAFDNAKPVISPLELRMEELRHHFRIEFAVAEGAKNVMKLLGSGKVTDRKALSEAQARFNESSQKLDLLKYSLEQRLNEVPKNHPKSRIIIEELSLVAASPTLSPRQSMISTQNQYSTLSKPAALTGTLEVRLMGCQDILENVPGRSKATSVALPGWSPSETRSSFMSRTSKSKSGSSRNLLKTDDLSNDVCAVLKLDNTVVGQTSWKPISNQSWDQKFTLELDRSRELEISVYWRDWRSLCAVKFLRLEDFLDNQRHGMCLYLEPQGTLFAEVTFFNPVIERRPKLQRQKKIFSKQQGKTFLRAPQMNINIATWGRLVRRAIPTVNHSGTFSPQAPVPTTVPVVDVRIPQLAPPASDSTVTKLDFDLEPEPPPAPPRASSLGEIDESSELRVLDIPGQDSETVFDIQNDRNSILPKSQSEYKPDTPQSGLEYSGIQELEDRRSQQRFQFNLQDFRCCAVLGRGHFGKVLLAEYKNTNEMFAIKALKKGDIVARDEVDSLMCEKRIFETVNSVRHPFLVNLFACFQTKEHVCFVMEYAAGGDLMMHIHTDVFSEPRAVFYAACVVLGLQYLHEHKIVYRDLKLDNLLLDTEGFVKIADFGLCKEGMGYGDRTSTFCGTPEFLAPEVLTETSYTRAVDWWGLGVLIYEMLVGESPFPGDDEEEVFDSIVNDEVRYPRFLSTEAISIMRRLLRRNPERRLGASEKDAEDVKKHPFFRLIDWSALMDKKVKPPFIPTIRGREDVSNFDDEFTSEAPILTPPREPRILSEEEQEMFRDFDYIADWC
Outline: as §1

[13] = biological target: Ron (Homo sapiens (Human), UniProt Q04912)
Outline: as §1

[14] = biological target: GSK3alpha (Homo sapiens (Human), UniProt P49840)
GSK3alpha, sequence (P49840 whole entry): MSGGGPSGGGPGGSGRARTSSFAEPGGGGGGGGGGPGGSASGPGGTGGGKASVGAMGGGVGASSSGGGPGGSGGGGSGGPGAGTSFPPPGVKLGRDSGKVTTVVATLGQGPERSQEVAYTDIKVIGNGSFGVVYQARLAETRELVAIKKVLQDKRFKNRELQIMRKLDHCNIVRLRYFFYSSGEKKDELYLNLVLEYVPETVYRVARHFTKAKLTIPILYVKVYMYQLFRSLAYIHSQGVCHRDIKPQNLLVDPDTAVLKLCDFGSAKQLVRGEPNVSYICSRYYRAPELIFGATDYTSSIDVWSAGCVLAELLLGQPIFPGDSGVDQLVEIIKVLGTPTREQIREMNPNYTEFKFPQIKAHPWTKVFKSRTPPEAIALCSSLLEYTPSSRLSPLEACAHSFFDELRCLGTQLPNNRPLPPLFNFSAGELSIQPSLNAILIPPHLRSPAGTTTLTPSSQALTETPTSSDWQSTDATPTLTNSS
Outline: as §1

[15] = biological target: Abl2 (Homo sapiens (Human), UniProt P42684)
Outline: as §1

[16] = biological target: DAPK1 (Homo sapiens (Human), UniProt P53355)
Outline: as §1

[17] = biological target: AURKA (Homo sapiens (Human), UniProt O14965)
Outline: as §1

[18] = biological target: Lyn (Homo sapiens (Human), UniProt P07948)
Outline: as §1

[19] = biological target: IR (Homo sapiens (Human), UniProt P06213)
Outline: as §1

[20] = biological target: Flt3 (Homo sapiens (Human), UniProt P36888)
Flt3, sequence (P36888 27-993): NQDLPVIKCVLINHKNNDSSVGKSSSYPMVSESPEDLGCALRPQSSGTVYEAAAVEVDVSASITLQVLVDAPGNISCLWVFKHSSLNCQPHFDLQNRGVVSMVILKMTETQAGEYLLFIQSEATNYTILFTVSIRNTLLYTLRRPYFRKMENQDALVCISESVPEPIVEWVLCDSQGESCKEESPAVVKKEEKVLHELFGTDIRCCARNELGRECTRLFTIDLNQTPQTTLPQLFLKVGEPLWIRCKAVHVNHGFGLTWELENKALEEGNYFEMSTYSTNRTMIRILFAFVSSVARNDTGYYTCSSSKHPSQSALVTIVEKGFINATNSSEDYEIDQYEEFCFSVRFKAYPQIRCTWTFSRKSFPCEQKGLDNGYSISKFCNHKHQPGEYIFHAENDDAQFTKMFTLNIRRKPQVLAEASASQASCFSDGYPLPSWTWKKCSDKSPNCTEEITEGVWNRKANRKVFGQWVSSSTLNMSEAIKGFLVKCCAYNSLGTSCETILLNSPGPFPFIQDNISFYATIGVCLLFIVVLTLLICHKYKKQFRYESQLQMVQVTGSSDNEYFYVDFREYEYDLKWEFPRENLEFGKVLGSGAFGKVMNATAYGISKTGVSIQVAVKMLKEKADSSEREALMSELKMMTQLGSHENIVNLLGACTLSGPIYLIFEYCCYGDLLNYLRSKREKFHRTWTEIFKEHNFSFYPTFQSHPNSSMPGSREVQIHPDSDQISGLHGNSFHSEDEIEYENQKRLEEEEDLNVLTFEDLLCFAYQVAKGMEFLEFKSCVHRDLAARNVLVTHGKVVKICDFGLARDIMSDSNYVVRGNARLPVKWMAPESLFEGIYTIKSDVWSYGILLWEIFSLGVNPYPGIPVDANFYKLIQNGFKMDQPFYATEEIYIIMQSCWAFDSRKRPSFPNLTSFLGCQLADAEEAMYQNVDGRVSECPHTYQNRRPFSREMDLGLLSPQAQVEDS
Outline: as §1

[21] = biological target: CAMK2g (Homo sapiens (Human), UniProt Q13555)
Outline: as §1

[22] = biological target: Ros (Homo sapiens (Human), UniProt P08922)
Outline: as §1

[23] = biological target: JNK3 (Homo sapiens (Human), UniProt P53779)
Outline: as §1

[24] = biological target: Fer (Homo sapiens (Human), UniProt P16591)
Outline: as §1

[25] = biological target: KDR (Homo sapiens (Human), UniProt P35968)
Outline: as §1

[26] = biological target: MAPKAP-K2 (Homo sapiens (Human), UniProt P49137)
Outline: as §1

[27] = biological target: Plk2 (Homo sapiens (Human), UniProt Q9NYY3)
Outline: as §1

[28] = biological target: CAMK2b (Homo sapiens (Human), UniProt Q13554)
Outline: as §1

[29] = biological target: HIPK3 (Homo sapiens (Human), UniProt Q9H422)
Outline: as §1

[30] = biological target: GRK6 (Homo sapiens (Human), UniProt P43250)
Outline: as §1

[31] = biological target: EphA1 (Homo sapiens (Human), UniProt P21709)
Outline: as §1

[32] = biological target: FGFR2 (Homo sapiens (Human), UniProt P21802)
Outline: as §1

[33] = biological target: PAK2 (Homo sapiens (Human), UniProt Q13177)
Outline: as §1

[34] = biological target: MKNK2 (Homo sapiens (Human), UniProt Q9HBH9)
Outline: as §1

[35] = biological target: CDK3/cyclinE (Homo sapiens (Human), UniProt Q00526)
Outline: as §1

[36] = biological target: MKK4_m (Mus musculus (Mouse), UniProt P47809)
Outline: as §1

[37] = biological target: TAO1 (Homo sapiens (Human), UniProt Q7L7X3)
Outline: as §1

[38] = biological target: FGFR4 (Homo sapiens (Human), UniProt P22455)
Outline: as §1

[39] = biological target: MSK2 (Homo sapiens (Human), UniProt O75676)
Outline: as §1

Compound	Avg. POC [1]	Avg. POC [2]	Avg. POC [3]	Avg. POC [4]	Avg. POC [5]	Avg. POC [6]	Avg. POC [7]	Avg. POC [8]	Avg. POC [9]	Avg. POC [10]	Avg. POC [11]	Avg. POC [12]	Avg. POC [13]	Avg. POC [14]	Avg. POC [15]	Avg. POC [16]	Avg. POC [17]	Avg. POC [18]	Avg. POC [19]	Avg. POC [20]	also measured
Cc1c(-c2cnn(C)c2)nn(-c2ccccc2)c1NC(=O)N[C@H]1CCCc2ccccc21 [Example 2, (S)-1-(1′,4-dimethyl-1-phenyl-1H,1′H-3,4′-bipyrazol-5-yl)-3-(1,2,3,4-tetrahydronaphthalen-1-yl)urea]	123.5 POC	102 POC	125 POC	125.5 POC	107 POC	75 POC	122 POC	148 POC	92.5 POC	113.5 POC	146.5 POC	128 POC	106.5 POC	123.5 POC	112.5 POC	108.5 POC	126 POC	115 POC	44 POC	96.5 POC	Avg. POC [21]: 107.5 POC; Avg. POC [22]: 106.5 POC; Avg. POC [23]: 117.5 POC; Avg. POC [24]: 110.5 POC; Avg. POC [25]: 123.5 POC; Avg. POC [26]: 137.5 POC; Avg. POC [27]: 102 POC; Avg. POC [28]: 106.5 POC; Avg. POC [29]: 119.5 POC; Avg. POC [30]: 103.5 POC; Avg. POC [31]: 85 POC; Avg. POC [32]: 112.5 POC; Avg. POC [33]: 104 POC; Avg. POC [34]: 106.5 POC; Avg. POC [35]: 105.5 POC; Avg. POC [36]: 102.5 POC; Avg. POC [37]: 110.5 POC; Avg. POC [38]: 124 POC; Avg. POC [39]: 112 POC
Cc1c(-c2cnn(C)c2)nn(-c2ccccc2)c1NC(=O)NC1CCOc2cc(F)ccc21 (stereo not drawn) [Example 12, 1-(1′,4-dimethyl-1-phenyl-1H,1′H-[3,4′-bipyrazol]-5-yl)-3-(7-fluorochroman-4-yl)urea]	102.5 POC	104.5 POC	107.5 POC	103 POC	98 POC	103.5 POC	97.5 POC	122 POC	97 POC	96 POC	135.5 POC	97.5 POC	116.5 POC	119.5 POC	118 POC	136 POC	111 POC	104.5 POC	92 POC	90 POC	Avg. POC [21]: 107.5 POC; Avg. POC [22]: 97.5 POC; Avg. POC [23]: 107.5 POC; Avg. POC [24]: 100.5 POC; Avg. POC [25]: 119.5 POC; Avg. POC [26]: 122.5 POC; Avg. POC [27]: 103.5 POC; Avg. POC [28]: 106 POC; Avg. POC [29]: 102.5 POC; Avg. POC [30]: 103 POC; Avg. POC [31]: 100 POC; Avg. POC [32]: 114 POC; Avg. POC [33]: 97 POC; Avg. POC [34]: 103.5 POC; Avg. POC [35]: 98.5 POC; Avg. POC [36]: 144.5 POC; Avg. POC [37]: 104 POC; Avg. POC [38]: 119 POC; Avg. POC [39]: 127 POC
Cc1c(-c2ccc(=O)n(C)c2)nn(-c2ccccc2)c1NC(=O)NC1CN(CC(F)(F)F)Cc2ccccc21 (stereo not drawn) [Example 26, 1-(4-methyl-3-(1-methyl-6-oxo-1,6-dihydropyridin-3-yl)-1-phenyl-1H-pyrazol-5-yl)-3-(2-(2,2,2-trifluoroethyl)-1,2,3,4-tetrahydroisoquinolin-4-yl)urea]	108.5 POC	99 POC	114 POC	103 POC	110.5 POC	105.5 POC	102.5 POC	115.5 POC	92 POC	101.5 POC	131 POC	110.5 POC	101 POC	115.5 POC	105 POC	135 POC	107.5 POC	110.5 POC	82.5 POC	97.5 POC	Avg. POC [21]: 101 POC; Avg. POC [22]: 106.5 POC; Avg. POC [23]: 116 POC; Avg. POC [24]: 98 POC; Avg. POC [25]: 144.5 POC; Avg. POC [26]: 120 POC; Avg. POC [27]: 101.5 POC; Avg. POC [28]: 107 POC; Avg. POC [29]: 111 POC; Avg. POC [30]: 100.5 POC; Avg. POC [31]: 101 POC; Avg. POC [32]: 112 POC; Avg. POC [33]: 99.5 POC; Avg. POC [34]: 99.5 POC; Avg. POC [35]: 101.5 POC; Avg. POC [36]: 99.5 POC; Avg. POC [37]: 105.5 POC; Avg. POC [38]: 123 POC; Avg. POC [39]: 107.5 POC
